Patent publication US11000512B2, “Use of DDX3 inhibitors as antiproliferative agents” (AZIENDA OSPEDALIERA UNIVERSITARIA SENESE, priority 2016, dated 2021)

Assays:
[1] = Parallel Artificial Membrane Permeability Assay (PAMPA), GI; format: in vitro ADME; details: GI (intestinal) PAMPA, value in brackets
Method: Parallel Artificial Membrane Permeability Assay (PAMPA). Donor solution (0.5 mM) was prepared by diluting 1 mM dimethylsulfoxide (DMSO) compound stock solution using phosphate buffer (pH 7.4, 0.025 M). Filters were coated with 5 μL of a 1% (w/v) dodecane solution of phosphatidylcholine prepared from CHCl3 solution 10% w/v, for intestinal permeability. Donor solution (150 μL) was added to each well of the filter plate. To each well of the acceptor plate were added 300 μL of solution (50% DMSO in phosphate buffer). All compounds were tested in three different plates on different days. The sandwich was incubated for 5 h at room temperature under gentle shaking. After the incubation time, the plates were separated, and samples were taken from both receiver and donor sides and analyzed using LC with UV detection at 280 nm.
LC analysis were performed with a Varian Prostar HPLC system (Varian Analytical Instruments, USA) equipped with a binary pump with a manual injection valve and model Prostar 325 UV-VIS Detector. Chromatographic separations were conducted using a Polaris C18-A column (150-4.6 mm, 5 μm particle size) at a flow rate of 0.8 mL min^−1 with a mobile phase composed of 60% ACN/40% H2O.
Permeability (Papp) for PAMPA was calculated according to the following equation, obtained from Wohnsland and Faller and Sugano et al. equation with some modification in order to obtain permeability values in cm s^−1,
where VA is the volume in the acceptor well, VD is the volume in the donor well (cm^3), A is the “effective area” of the membrane (cm^2), t is the incubation time (s) and r the ratio between drug concentration in the acceptor and equilibrium concentration of the drug in the total volume (VD+VA). Drug concentration is estimated by using the peak area integration.
Membrane retentions (%) were calculated according to the following equation: […]
where r is the ratio between drug concentration in the acceptor and equilibrium concentration, D, A, and Eq represented drug concentration in the donor, acceptor and equilibrium solution, respectively.

[2] = Water Solubility Assay; format: physicochemical; details: for LogS: from aqueous solubility; for Aq. Solub.: water, room temperature, 24-36 h
Method: Water Solubility Assay. Each solid compound (1 mg) was added to 1 mL of water. The samples were shaked in a shaker bath at room temperature for 24-36 h. The suspensions were filtered through a 0.45 μm nylon filter (Acrodisc), and the solubilized compound determined by LC-MS-MS assay. For each compound the determination was performed in triplicate.
(§1) For the quantification was used an LC-MS system consisted of a Varian apparatus (Varian Inc) including a vacuum solvent degassing unit, two pumps (212-LC), a Triple Quadrupole MSD (Mod. 320-LC) mass spectrometer with ES interface and Varian MS Workstation System Control Vers. 6.9 software. Chromatographic separation was obtained using a Pursuit C18 column (50×2.0 mm) (Varian) with 3 μm particle size and gradient elution: eluent A being ACN and eluent B consisting of water. […] The flow rate was 0.2 mL min^−1 and injection volume was 5 μL. The instrument operated in positive mode and parameters were: detector 1850 V, drying gas pressure 25.0 psi, desolvation temperature 300.0° C., nebulizing gas 40.0 psi, needle 5000 V and shield 600 V. Nitrogen was used as nebulizer gas and drying gas. Collision induced dissociation was performed using Argon as the collision gas at a pressure of 1.8 mTorr in the collision cell. Microsomal Stability Assay. […] The reaction was stopped by cooling on ice and adding 1.0 mL of acetonitrile. The reaction mixtures were then centrifuged, and the parent drug and metabolites were subsequently determined by LC-UV-MS. Chromatographic analysis was performed with an Agilent 1100 LC/MSD VL system (G1946C) (Agilent Technologies, Palo Alto, Calif.) constituted by a vacuum solvent degassing unit, a binary high-pressure gradient pump, an 1100 series UV detector, and an 1100 MSD model VL benchtop mass spectrometer.

[3] = biological target: T1, Human recombinant DDX3 (DDX3 wt helicase) (Homo sapiens, UniProt O00571); test: Helicase assay (anti-enzymatic activity against the DDX3 helicase); format: biochemical; details: for activity compared with compound EI01D: DDX3 helicase inhibition relative to EI01D
T1 construct: made in house
Method: The helicase activity of DDX3 wt was monitored by measuring the conversion of a double stranded (ds) RNA (labelled at the 5′-end of one strand with a 6-FAM fluorescent) into single stranded (ss) nucleic acid. A final concentration of 25 nM RNA substrate was used in the experiments, unless otherwise stated. Reactions were performed in 50 mM TrisHCl pH 7.5, 1 mM DTT, 0.2 mg/ml BSA, 5% glycerol and 100 μM ATP, 10 mM MgCl2 at 37° C. degrees for 10′ and stopped by adding EDTA 50 mM pH 8. Products were separated through non-denaturating 8% PAGE at 5 W for 4 hours in TBE buffer at 4° C. Substrates and products were quantified by laser scanning densitometry (Thyphoon-TRIO, GE Healthcare).
Human recombinant DDX3 was cloned, expressed and purified as described (Franca et al. Proteins 2007, 67, 1128-37).

[4] = test system: Human breast adenocarcinoma cell line (MDA-MB-231); test: Cytotoxicity test / growth inhibition, MDA-MB-231; format: cell-based; details: MDA-MB-231, 48 hours, cell counting
Method: (§2) Cells were purchased from American Type Culture Collection (ATCC, Manassas, Va., USA). The LNCaP (ATCC® CRL-1740™), A549 (ATCC® CCL-185™), MDA-MB-231 (ATCC® CRM-HTB-26™), 22Rv1 (ATCC® CRL-2505™), HCT-116 (ATCC® CCL-247™) and PC3 (ATCC® CRL-1435™) cells were maintained in Roswell Park Memorial Institute 1640 medium (RPMI; Euroclone, ECB9006L) supplemented with 10% fetal bovine serum (Euroclone; ECS0180L), 2 mM L-glutamine, 100 units/mL penicillin and […] streptomycin at 37° C. in an atmosphere of 5% CO2/air. DU145 (ATCC® HTB-81™), and DAOY (ATCC® HTB-186™) cells were maintained in Eagle's minimal essential medium (EMEM; Euro-clone, ECM0445L) supplemented with 10% fetal bovine serum (Euroclone; ECS0180L), 2 mM L-glutamine, 100 units/ml penicillin and […] streptomycin at 37° C. in an atmosphere of 5% CO2/air. SH-SY5Y (ATCC® CRL-2266™), DBRTG (ATCC® CRL-2020™), HeLa (ATCC® CCL-2™), HN6 cells (kindly provided by Dr Silvio Gutkind, UCSD Medical Center, Moores Cancer Center USA, Chen J. J et al, Oncotarget 2013, 4, 206-217)), U2OS (ATCC® HTB-96™), RD18 cells (kindly provided by Dr P. Boccuni Memorial Sloan-Kettering Cancer Center, New York, USA Vella S. et al. Clin Epigenetics. 2015 6; 7-82), cells were maintained in Dulbecco's modified Eagle's medium (DMEM; Euroclone, ECB7501L) supplemented with 10% fetal bovine serum (Euroclone; ECS0180L), 2 mM L-glutamine, 100 units/ml penicillin and […] streptomycin at 37° C. in an atmosphere of 5% CO2/air.
(§3) Cell lines were seeded at appropriate densities in 2 mL growth medium in 6-wells culture plates 24 hours before the treatment with the inhibitor compounds. After 24 h the culture medium was removed and fresh medium containing increasing concentrations of chemical compounds was added to cells. The fixed final concentrations were: 0.1 μM, 1 μM, 10 μM, 100 μM. DMSO was the vehicle used for dilution of the compounds and its final concentration on cells was less than 0.2%. Medium-only containing wells were included as controls. Cells were incubated 48 hours with drugs and, then, cell viability was evaluated.
(§4) Cells were detached from each well of the 6-wells plates with 300 μL of Trypsin and suspended in culture medium to a final volume of 1 mL. Cell viability was then assessed through cell counting. Cells were diluted in 1:50 ratio of an isotonic buffered diluent, Isoton (Backman Coulter), following the manufacturer's instructions, and counted using an automated cell counter (Z2 series Coulter Counter, Beckman Coulter). Each cell count was performed in three replicates. The values corresponding to the relative survival of cells in presence of each chemical compound at single concentrations were normalized to the untreated controls. Then, the half maximal inhibitory concentration (IC50) value, which represent the drug concentration that is required to induce a 50% growth inhibition in vitro, was calculated with GraphPad Prism 6.0 software using the best fitting sigmoid curve.

[5] = test system: Human osteosarcoma cell line (U2OS); test: Cytotoxicity test / growth inhibition, U2OS; format: cell-based; details: 48 hours, cell counting
Method: as §2, §3, §4

[6] = test system: Human head and neck squamous carcinoma cell line (HN6); test: Cytotoxicity test / growth inhibition, HN6; format: cell-based; details: HN6, 48 hours, cell counting
Method: as §2, §3, §4

[7] = test system: Human adenocarcinomic alveolar basal epithelial cell line (A549); test: Cytotoxicity test / growth inhibition, A549; format: cell-based; details: A549, 48 hours, cell counting
Method: as §2, §3, §4

[8] = Microsomal Stability Assay (HLM); format: in vitro ADME; details: human liver microsomes, 37° C., 60 min, NADPH-generating system; percentage of not metabolized compound
Source text: as §1
Chromatographic separation was obtained using a Varian Polaris C18-A column (150-4.6 mm, 5 μm particle size) and gradient elution: eluent A being ACN and eluent B consisting of water. […] The flow rate was 0.8 mL min^−1 and injection volume was 20 μL.
The Agilent 1100 series mass spectra detection (MSD) single-quadrupole instrument was equipped with the orthogonal spray API-ES (Agilent Technologies, Palo Alto, Calif.). Nitrogen was used as nebulizing and drying gas. The pressure of the nebulizing gas, the flow of the drying gas, the capillary voltage, the fragmentor voltage, and the vaporization temperature were set at 40 psi, 9 L/min, 3000 V, 70 V, and 350° C., respectively. UV detection was monitored at 280 nm. The LC-ESI-MS determination was performed by operating the MSD in the positive ion mode. Spectra were acquired over the scan range m/z 100-1500 using a step size of 0.1 u. The percentage of not metabolized compound was calculated by comparison with reference solutions.

T1 sequence (O00571 whole entry): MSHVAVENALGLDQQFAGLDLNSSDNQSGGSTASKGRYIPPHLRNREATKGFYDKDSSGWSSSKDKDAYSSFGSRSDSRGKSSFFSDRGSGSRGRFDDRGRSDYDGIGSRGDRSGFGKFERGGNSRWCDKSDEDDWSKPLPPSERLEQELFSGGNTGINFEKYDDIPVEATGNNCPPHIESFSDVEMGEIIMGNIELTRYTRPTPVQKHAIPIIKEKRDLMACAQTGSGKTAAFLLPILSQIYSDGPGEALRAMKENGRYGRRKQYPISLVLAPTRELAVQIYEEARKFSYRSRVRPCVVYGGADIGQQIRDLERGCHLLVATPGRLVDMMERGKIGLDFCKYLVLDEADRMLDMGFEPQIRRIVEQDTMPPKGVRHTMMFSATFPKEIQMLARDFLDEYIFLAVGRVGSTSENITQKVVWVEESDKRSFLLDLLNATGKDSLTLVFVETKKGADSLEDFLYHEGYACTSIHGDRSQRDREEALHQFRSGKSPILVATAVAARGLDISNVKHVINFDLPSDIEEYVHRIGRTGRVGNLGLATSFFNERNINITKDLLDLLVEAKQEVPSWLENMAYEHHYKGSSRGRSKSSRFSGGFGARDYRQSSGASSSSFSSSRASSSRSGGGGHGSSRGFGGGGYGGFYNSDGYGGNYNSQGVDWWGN

Cc1ccccc1NC(=O)Nc1ccc(-n2cc(CCC(C)C)nn2)cc1 [Compound 20b, 1-(4-(4-isopentyl-1H-1,2,3-triazol-1-yl)phenyl)-3-o-tolylurea]
PAMPA GI (RM %) membrane retention [1]: 26.7%
LogS [2]: <−8.6
Aq. Solub. [2]: <0.001 µg/mL

COCCc1cn(-c2ccc(NC(=O)Nc3ccccc3C)cc2)nn1 [Compound 20f, 1-(4-(4-(2-methoxyethyl)-1H-1,2,3-triazol-1-yl)phenyl)-3-o-tolylurea]
PAMPA GI (RM %) membrane retention [1]: 7.4%

Cc1c(Cl)cccc1NC(=O)Nc1ccc(-n2cc(CCC(C)C)nn2)cc1 [Compound 21b, 1-(3-chloro-2-methylphenyl)-3-(4-(4-isopentyl-1H-1,2,3-triazol-1-yl)phenyl)urea]
PAMPA GI (RM %) membrane retention [1]: 59.1%
LogS [2]: <−8.6
Aq. Solub. [2]: <0.001 µg/mL

CC(C)CCc1cn(-c2ccc(NC(=O)Nc3ccccc3C(F)(F)F)cc2)nn1 [Compound 22b, 1-(4-(4-isopentyl-1H-1,2,3-triazol-1-yl)phenyl)-3-(2-(trifluoromethyl)phenyl)urea]
PAMPA GI (RM %) membrane retention [1]: 24.8%
activity compared with compound EI01D [3]: approximately ten-fold more active
IC50 [4]: 13.1 µM
LogS [2]: <−8.6

CCCC(C)C(F)c1cn(-c2ccc(NC(=O)Nc3ccccc3C(F)(F)F)cc2)nn1 (stereo not shown) [Compound 42c, 1-(4-(4-(1-fluoro-2-methylpentyl)-1H-1,2,3-triazol-1-yl)phenyl)-3-(2-(trifluoromethyl)phenyl) urea]
IC50 [5]: 22.5 µM
IC50 [6]: 6.32 µM
IC50 [4]: 33.6 µM
IC50 [7]: 57.2 µM

CCOCn1nnc(-c2ccc(NC(=O)Nc3ccccc3C)cc2)n1 [Compound 50, 1-(4-(2-(ethoxymethyl)-2H-tetrazol-5-yl)phenyl)-3-(o-tolyl)urea]
IC50 [4]: 23.5 µM

CCCCn1nnc(-c2ccc(NC(=O)Nc3ccccc3C(F)(F)F)cc2)n1 [Compound 51, 1-(4-(2-butyl-2H-tetrazol-5-yl)phenyl)-3-(2-(trifluoromethyl)phenyl)urea]
IC50 [5]: 51.5 µM
IC50 [6]: 16.4 µM

CC(C)CCc1cn(-c2ccc(NC(=O)Nc3ccccc3F)cc2)nn1 [Compound 55a, 1-(2-fluorophenyl)-3-(4-(4-isopentyl-1H-1,2,3-triazol-1-yl)phenyl)urea]
activity compared with compound EI01D [3]: approximately ten-fold more active

CC(C)CCc1cn(-c2ccc(NC(=O)Nc3cccc(F)c3)cc2)nn1 [Compound 55b, 1-(3-fluorophenyl)-3-(4-(4-isopentyl-1H-1,2,3-triazol-1-yl)phenyl)urea]
activity compared with compound EI01D [3]: approximately ten-fold more active

CCCCc1cn(-c2ccc(NC(=O)Nc3ccccc3C(F)(F)F)cc2F)nn1 [Compound 81, 1-(4-(4-butyl-1H-1,2,3-triazol-1-yl)-3-fluorophenyl)-3-(2-(trifluoromethyl)phenyl)urea]
PAMPA GI (RM %) membrane retention [1]: 30.4%
Sability % [8]: 94%
IC50 [4]: 25.1 µM

CC(C)CCc1cn(-c2ccc(NC(=O)Nc3ccccc3C(F)(F)F)cn2)nn1 [Compound 86, 1-(6-(4-isopentyl-1H-1,2,3-triazol-1-yl)pyridin-3-yl)-3-(2-(trifluoromethyl)phenyl)urea]
IC50 ([3]; DDX3 helicase activity, dsRNA unwinding, n.a = Compound not active, read-out: ID50 (the source's name)): 51 µM

CCCCc1nnc(-c2ccc(NC(=O)Nc3ccccc3C(F)(F)F)cc2)s1 [Compound 124, 1-(4-(5-butyl-1,3,4-thiadiazol-2-yl)phenyl)-3-(2-(trifluoromethyl)phenyl)urea]
IC50 [5]: 60.1 µM
